We go through 3 molecules from patent US20250353891A1 (MEDIMMUNE LIMITED, priority 2022, published 2025).

In data set [1] the test system is GLP-1R knockout (KO) mice. The data set is described as follows: Glucose change in GLP-1R knockout mice. The format is in vivo, mouse. The following applies: GLP-1R KO mice, s.c., 3 nmol/kg, 120 min vs 0 min, no somatostatin pretreatment. Put shortly:
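GLP-1R knockout mice (n=4-8/group, sorted by body weight) were fasted 2 h, and in some studies pretreated with octreotide 10 mg/kg 30 min before peptide injection. Mice were reused up to 3 times with at least 1-week wash-out.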

The nature of data set [2]: Proteolytic resistance to FasSSIF/Pancreatin. The format is in vitro ADME. To be noted: simulated intestinal fluid. In outline: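 Peptide (1.0 mg) in pre-warmed FasSSIF, proteolysis started with fresh FasSSIF/USP Pancreatin and held at 37 °C. Aliquots at 0, 5, 10, 15, 30 min quenched in 10% TFA; remaining intact peptide estimated by RP-HPLC peak area, UV 210 nm.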
Data set [3] can be described thus: Proteolytic resistance to FasSSGF containing porcine pancreatic pepsin. The following applies: pig, simulated gastric fluid. The format is in vitro ADME. As to the method: Stimulated Gastric Fluid (FasSSGF) Containing Porcine Pancreatic Pepsin Lyophilized porcine pancreatic pepsin (Sigma: P7012) was reconstituted to 0.5 mg/mL (˜2500 units/mL) in freshly prepared FasSSGF (Biorelevant media) to give the enzyme stock solution. Peptide stock solution was prepared to a concentration of 250 μM (˜1.0 mg/mL) in FasSSGF. 200 μL ([…], ˜250 units) of pepsin stock solution was added to 200 μL of peptide solution (1.0 mg/mL, ˜100 μg of peptide, ˜25 nmoles) and the mixture was co-incubated in a temperature-regulated incubator at 37° C. for the duration of the experiment. 30 μL aliquot of the peptide-enzyme mixture was periodically withdrawn (t=0, 5, 10, 15, and 30 min) and quenched immediately by addition of 80 μL of 0.1M ammonium bicarbonate solution in water/acetonitrile (4:1, pH 8) to arrest proteolytic activity. 30 μL aliquot was analyzed by analytical RP-HPLC. Analytical RP-HPLC method: Agilent Polaris C8-A column (4.6×100 mm, 3 micron) eluted with a linear binary gradient of 10-90% MeCN (0.1% TFA v/v) in water (0.1% TFA v/v) over either 10 or 15 mins at 1.5 mL min-1 at 40° C. with detection by UV absorption at 210 nm. Manual integration (AUC) allowed estimation of remaining intact peptide over the time course of the experiment.

For data set [4], the target named is human glucagon receptor (hGCGR) (Homo sapiens, UniProt P47871). The data set is described as follows: cAMP production (HTRF) in CHO cells expressing hGCGR. The data set is classed as cell-based. Also noted: expressed in transfected cells. To be noted: Table 6, peptides modified at position 17; cAMP in CHO hGCGR cells; geometric mean; read-out: hGluc-R EC50. In outline: (§1)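 Potency values represent EC50 from 4-parameter logistic curves of HTRF % Delta F signal. Receptor-expressing CHO cells (hGCGR 2×10^5 cells/mL, hGLP-1R 1×10^5 cells/mL) were exposed for 30 min at room temperature before two-step cAMP detection.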
human glucagon receptor (hGCGR), sequence (P47871 26-477): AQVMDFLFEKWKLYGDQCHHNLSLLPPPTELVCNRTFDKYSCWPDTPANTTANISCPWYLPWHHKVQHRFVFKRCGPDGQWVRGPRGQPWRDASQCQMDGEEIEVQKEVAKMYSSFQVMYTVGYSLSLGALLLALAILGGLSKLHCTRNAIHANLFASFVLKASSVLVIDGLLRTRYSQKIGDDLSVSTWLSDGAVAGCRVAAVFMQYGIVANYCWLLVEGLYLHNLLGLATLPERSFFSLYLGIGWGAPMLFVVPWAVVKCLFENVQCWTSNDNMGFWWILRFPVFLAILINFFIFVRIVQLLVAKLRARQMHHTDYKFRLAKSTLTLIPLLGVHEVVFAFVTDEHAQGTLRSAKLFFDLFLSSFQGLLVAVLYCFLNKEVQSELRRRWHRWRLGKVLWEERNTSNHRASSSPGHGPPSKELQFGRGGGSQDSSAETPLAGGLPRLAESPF
For orientation: cAMP levels reflect the balance of adenylyl cyclase and phosphodiesterase activity.

The target in a further data set is T1, recombinant Neprilysin (Homo sapiens, UniProt P08473).
T1 construct: purchased R&D Systems 1182-ZNC-010
T1 sequence (P08473 52-750 limits assumed): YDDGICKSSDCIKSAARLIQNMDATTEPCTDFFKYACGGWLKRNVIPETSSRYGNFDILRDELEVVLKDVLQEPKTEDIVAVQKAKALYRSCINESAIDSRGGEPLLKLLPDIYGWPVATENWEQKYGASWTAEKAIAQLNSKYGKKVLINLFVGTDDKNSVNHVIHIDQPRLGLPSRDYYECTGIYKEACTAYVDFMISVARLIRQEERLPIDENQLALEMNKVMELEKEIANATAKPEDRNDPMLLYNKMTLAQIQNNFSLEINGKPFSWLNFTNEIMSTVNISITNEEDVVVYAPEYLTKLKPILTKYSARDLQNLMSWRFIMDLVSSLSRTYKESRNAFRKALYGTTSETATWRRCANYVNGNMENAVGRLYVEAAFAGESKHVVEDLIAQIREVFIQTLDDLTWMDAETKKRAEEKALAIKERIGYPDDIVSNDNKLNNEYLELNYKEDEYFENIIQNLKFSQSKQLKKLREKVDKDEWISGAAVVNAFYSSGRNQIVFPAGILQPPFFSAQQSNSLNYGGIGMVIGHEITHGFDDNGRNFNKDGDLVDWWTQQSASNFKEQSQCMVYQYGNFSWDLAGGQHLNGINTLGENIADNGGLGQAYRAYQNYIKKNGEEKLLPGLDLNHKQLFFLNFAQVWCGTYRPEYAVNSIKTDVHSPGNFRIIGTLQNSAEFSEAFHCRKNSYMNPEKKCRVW
The data set can be described thus: Proteolytic resistance to neprilysin. The format is in vitro ADME. To be noted: pH 8.3. On the procedure:
10.0 μg (˜10 units) recombinant Neprilysin (R&D Systems: 1182-ZNC-010) was reconstituted to 100 μL (100 μg/mL, ˜100 units/mL) in assay buffer (50 mM Tris, 50 mM NaCl, 50 mM NaHCO3, adjusted to pH 8.3) to give the enzyme stock solution. Peptide stock solutions were prepared to a concentration of ˜250 μM (˜1.0 mg/mL of 4 kDa peptide) in assay buffer. 100 μL (10 μg, ˜10 units) of neprilysin stock solution was added to 100 μL of peptide stock solution (1.0 mg/mL, ˜100 μg of peptide) and the mixture was co-incubated in a temperature regulated incubator at 37° C. for the duration of the experiment. 25 μL aliquots (˜ 12.5 μg initial peptide) of the peptide-enzyme mixture were periodically withdrawn (t=0, 30 mins, 1 h, 2 h, 4 h and 24 h) and quenched immediately by addition to an equal volume ([…]) of 10% TFA (v/v) in 1:1 water/acetonitrile to arrest proteolytic activity. The quenched aliquot centrifuged at 7800 rpm, and 30 μL of the supernatant was analyzed by analytical RP-HPLC as follows: Analytical RP-HPLC method: Agilent Polaris C8-A column (4.6×100 mm, 3 micron) eluted with a linear binary gradient of 10-90% MeCN (0.1% TFA v/v) in water (0.1% TFA v/v) over either 10 or 15 mins at 1.5 mL min-1 at 40° C. with detection by UV absorption at 210 nm. Manual integration (AUC) allowed estimation of remaining intact peptide over the time course of the experiment.

Another data set concerns wildtype (WT) mice. The data set can be described thus: Glucose change in wildtype mice. The data set is classed as in vivo, mouse. To be noted: s.c., 3 nmol/kg, 120 min vs 0 min, no somatostatin pretreatment. Put shortly:
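Wildtype mice aged 8-14 weeks, fasted 2 h, sometimes pre-treated with octreotide 10 mg/kg 30 min before peptide injection. Blood glucose by glucometer at -30, 0, 30, 60, 120, 180, 240 and 360 min; n=4-8/group, mice reused up to 3 times with ≥1 week wash-out.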

Data set [5] deals with human GLP-1 receptor (hGLP-1R) (Homo sapiens, UniProt P43220). The data set is described as follows: cAMP production (HTRF) in CHO cells expressing hGLP-1R. The data set is classed as cell-based. Also noted: expressed in transfected cells. To be noted: for EC50: Table 6, peptides modified at position 17, cAMP in CHO hGLP-1R cells, geometric mean, read-out: hGLP-1R EC50; for % Relative Potency Ratio: Table 6, % GLP-1R activity relative to GLP-1 / % GlucR activity relative to glucagon. Put shortly: as §1
human GLP-1 receptor (hGLP-1R), sequence (P43220 24-463): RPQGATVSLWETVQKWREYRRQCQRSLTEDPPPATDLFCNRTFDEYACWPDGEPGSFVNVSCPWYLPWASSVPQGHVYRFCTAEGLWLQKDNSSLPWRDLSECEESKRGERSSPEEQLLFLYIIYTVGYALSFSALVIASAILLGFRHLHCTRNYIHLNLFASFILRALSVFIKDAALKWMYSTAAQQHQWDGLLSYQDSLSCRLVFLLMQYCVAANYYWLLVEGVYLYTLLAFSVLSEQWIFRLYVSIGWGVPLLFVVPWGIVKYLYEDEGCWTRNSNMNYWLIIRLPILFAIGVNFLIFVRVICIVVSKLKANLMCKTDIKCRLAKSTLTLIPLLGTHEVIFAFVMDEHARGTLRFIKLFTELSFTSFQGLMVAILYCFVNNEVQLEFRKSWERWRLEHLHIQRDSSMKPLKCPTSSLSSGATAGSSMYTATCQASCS

A short description of a further data set: in vivo. The following applies: male, C57BL/6, mouse, 10 nmol/kg; for half-life: iv. From the text: Selected test peptides (n=8) were profiled for pharmacokinetic (PK) properties in the mouse after single intravenous (i.v.) or subcutaneous (s.c.) dose. A subset (n=4) meeting the acceptance criteria was subsequently profiled in the dog (single i.v. dose) and non-human primate (single i.v. and s.c. dose). […] Low-binding plasticware containers were used during preparation and sample handling to avoid non-specific binding.
After dosing, PK samples were collected from the dorsal metatarsal vein. Blood of each sample was transferred into plastic micro centrifuge tubes containing EDTA-K2, inverted several times for proper mixing of contents and then placed on wet ice. The blood samples were centrifuged at 4° C. to obtain plasma and stored at −75° C. prior to analysis.
Samples analysis: Samples were analyzed by LC-MS/MS. Calibration standards were injected at the beginning and end of each batch and the determined concentration for each prepared standard was used to construct a calibration curve. Plasma and dose aliquot sample concentrations were determined from the plasma calibration curve.
Data analysis: Plasma concentration data was analyzed by non-compartmental analysis (NCA) using Phoenix Winnonlin v. 8.3.3.33. Linear trapezoidal rule was used for increasing values and log trapezoidal rule was used for decreasing values, applying uniform weighting for lambda_z calculations. Subcutaneous bioavailability was calculated as the ratio AUC(s.c.)0-inf/AUC(i.v.)0-inf. Reported values (Table 18) represent the mean of the individual estimates.

Structures are written as SMILES. Starred links: 1 amine or outer side, 2 acyl side, 3 side chain; linkers in the order of their positions; H or OH if unused. Non-standard residues stand in square brackets, D forms with d. Residues, ends and D or L forms follow the SMILES beside them. Groups on a side chain read outwards from the residue. *: point of attachment. C18 diacid = O=C(O)CCCCCCCCCCCCCCCCC(=O)*; γGlu = O=C(O)[C@H](CCC(=O)[*:2])N[*:1]; Stearoyl = CCCCCCCCCCCCCCCCCC(=O)*; αMeF = C[C@](N)(Cc1ccccc1)C(=O)O; PEG2 = NCCOCCOCCC(=O)O; AEEA = NCCOCCOCC(=O)O; Aib = CC(C)(N)C(=O)O

On to `CCCCCCCCCCCCCCCCCC(=O)N[C@@H](CCC(=O)N[C@@H](CCC(=O)NCCOCCOCCC(=O)NCCOCCOCCC(=O)NCCCC[C@H](NC(=O)[C@H](CO)NC(=O)[C@H](CC(=O)O)NC(=O)[C@H](CC(C)C)NC(=O)[C@](C)(Cc1ccccc1)NC(=O)[C@H](CCCCN)NC(=O)[C@H](CO)NC(=O)[C@@H](NC(=O)[C@H](CC(=O)O)NC(=O)[C@H](CO)NC(=O)[C@@H](NC(=O)[C@](C)(Cc1ccccc1)NC(=O)[C@H](CO)NC(=O)CNC(=O)[C@H](CCC(N)=O)NC(=O)[C@H](CO)NC(=O)[C@@H](N)Cc1c[nH]cn1)[C@@H](C)O)C(C)C)C(=O)N[C@@H](C)C(=O)N[C@@H](C)C(=O)N[C@@H](CCC(N)=O)C(=O)N[C@@H](CC(=O)O)C(=O)N[C@@](C)(Cc1ccccc1)C(=O)N[C@H](C(=O)N[C@@H](CCC(N)=O)C(=O)NC(C)(C)C(=O)N[C@@H](CC(C)C)C(=O)N[C@@H](CCC(=O)O)C(=O)N[C@@H](C)C(=O)NCC(=O)NCC(N)=O)C(C)C)C(=O)O)C(=O)O` [Peptide 78] (H-HSQGS[αMeF]TSDVSK[αMeF]LDSK([PEG2-PEG2-γGlu-γGlu-Stearoyl])AAQD[αMeF]VQ[Aib]LEAGG-NH2; N-terminus assumed), for which, in data set [1], the “GLP-1R KO % glucose change 120 min” value worked out at 51.3%. In data set [2], this molecule returned a share remaining at 5 min, 3.3 mg/mL of 83%; a fraction remaining at 10 min, 3.3 mg/mL of 76%; an amount remaining at 0.25 h, 3.3 mg/mL of 69%; a share remaining at 0.5 h, 3.3 mg/mL of 58%. In data set [3], the fraction remaining at 0.25 h, 125 µM is 100% and the amount remaining at 0.5 h, 125 µM was 100%. In addition, the EC50 in data set [4] amounted to 0.00897 nM. For the same molecule, on recombinant Neprilysin (isolated enzyme neprilysin), the amount remaining at 4 h came to 100% and the amount remaining at 24 h was found to be 100%. In addition, at recombinant Neprilysin, the “% intact peptide over time” value amounted to 100%. The “WT % glucose change 120 min” value with wildtype (WT) mice is listed as −42.0%. In data set [5], the EC50 was 0.00114 nM and the “% Relative Potency Ratio” value is on record as 15.6.

With `CC(C)C[C@H](NC(=O)[C@H](Cc1c[nH]c2ccccc12)NC(=O)[C@H](CCCNC(=N)N)NC(=O)[C@@H](NC(=O)[C@H](Cc1ccccc1)NC(=O)[C@H](CC(=O)O)NC(=O)[C@H](CCC(N)=O)NC(=O)[C@H](C)NC(=O)[C@H](CCCNC(=N)N)NC(=O)[C@H](CCCCNC(=O)COCCOCCNC(=O)COCCOCCNC(=O)CC[C@H](NC(=O)CCCCCCCCCCCCCCCCC(=O)O)C(=O)O)NC(=O)[C@H](CCCCN)NC(=O)[C@H](CC(=O)O)NC(=O)[C@H](CC(C)C)NC(=O)[C@](C)(Cc1ccccc1)NC(=O)[C@H](CCCCN)NC(=O)[C@H](CO)NC(=O)[C@@H](NC(=O)[C@H](CC(=O)O)NC(=O)[C@H](CO)NC(=O)[C@@H](NC(=O)[C@H](Cc1ccccc1)NC(=O)[C@@H](NC(=O)CNC(=O)[C@H](CCC(N)=O)NC(=O)C(C)(C)NC(=O)[C@@H](N)Cc1c[nH]cn1)[C@@H](C)O)[C@@H](C)O)C(C)C)C(C)C)C(=O)N[C@@H](CC(C)C)C(=O)NC(C)(C)C(=O)N[C@@H](CCC(=O)O)C(N)=O` [Peptide 420] (H-H[Aib]QGTFTSDVSK[αMeF]LDKK([AEEA-AEEA-γGlu-C18 diacid])RAQDFVRWLL[Aib]E-NH2; N-terminus assumed), in data set [4], the EC50 came out at 0.0369 nM. Moreover, in the data set “in vivo”, the bioavailability came to 49% and the half-life was 5.7 h. Also, in data set [5], the EC50 amounted to 0.0231 nM and the “% Relative Potency Ratio” value was 3.2.

As for `CC(C)C[C@H](NC(=O)[C@H](Cc1c[nH]c2ccccc12)NC(=O)[C@H](CCC(N)=O)NC(=O)[C@@H](NC(=O)[C@H](Cc1ccccc1)NC(=O)[C@H](CC(=O)O)NC(=O)[C@H](CCCNC(=N)N)NC(=O)[C@H](C)NC(=O)[C@H](CCCNC(=N)N)NC(=O)[C@H](CCCCNC(=O)COCCOCCNC(=O)COCCOCCNC(=O)CC[C@H](NC(=O)CCCCCCCCCCCCCCCCC(=O)O)C(=O)O)NC(=O)[C@H](CCCCN)NC(=O)[C@H](CC(=O)O)NC(=O)[C@H](CC(C)C)NC(=O)[C@](C)(Cc1ccccc1)NC(=O)[C@H](CCCCN)NC(=O)[C@H](CO)NC(=O)[C@@H](NC(=O)[C@H](CC(=O)O)NC(=O)[C@H](CO)NC(=O)[C@@H](NC(=O)[C@H](Cc1ccccc1)NC(=O)[C@@H](NC(=O)CNC(=O)[C@H](CCC(N)=O)NC(=O)C(C)(C)NC(=O)[C@@H](N)Cc1c[nH]cn1)[C@@H](C)O)[C@@H](C)O)C(C)C)C(C)C)C(=O)N[C@@H](CC(C)C)C(=O)NC(C)(C)C(=O)N[C@@H](CCC(=O)O)C(N)=O` [Peptide 472] (H-H[Aib]QGTFTSDVSK[αMeF]LDKK([AEEA-AEEA-γGlu-C18 diacid])RARDFVQWLL[Aib]E-NH2; N-terminus assumed), the EC50 in data set [4] came out at 0.0111 nM. In addition, in the data set “in vivo”, the bioavailability was 83% and the half-life was 2.9 h. In data set [5], the EC50 amounted to 0.00763 nM and the “% Relative Potency Ratio” value came to 2.9.

The share remaining is the share of the starting amount still present when the sample was taken. The term EC50 denotes the concentration giving half of the maximal effect. The bioavailability is dose-corrected exposure relative to a reference, in per cent. As usually defined, the half-life is the time in which the quantity being followed falls by half. Low values mean fast loss, high ones slow loss.
